Data taken from patent US5877202A, “Indole derivatives useful to treat estrogen-related neoplasms and disorders” (priority 1996, dated 1999).
Read-outs that look alike come from different tables or passages of the source.

How the values were obtained:
estrogen receptors = target: T1, estrogen receptors (Homo sapiens, UniProt P03372); experiment: Quantification of estrogen receptors in nuclear and whole cell extracts (ER-EIA monoclonal kit), Table 1; format: cell-based, human (MCF-7 human breast cancer cells)
T1 construct: estrogen receptor extracted from MCF-7 human breast tumor cells; endogenous in cells; host or cells: MCF-7 human breast cancer cells (nuclear extract, cytosol or whole cell extract)
T1 sequence (P03372 1-595): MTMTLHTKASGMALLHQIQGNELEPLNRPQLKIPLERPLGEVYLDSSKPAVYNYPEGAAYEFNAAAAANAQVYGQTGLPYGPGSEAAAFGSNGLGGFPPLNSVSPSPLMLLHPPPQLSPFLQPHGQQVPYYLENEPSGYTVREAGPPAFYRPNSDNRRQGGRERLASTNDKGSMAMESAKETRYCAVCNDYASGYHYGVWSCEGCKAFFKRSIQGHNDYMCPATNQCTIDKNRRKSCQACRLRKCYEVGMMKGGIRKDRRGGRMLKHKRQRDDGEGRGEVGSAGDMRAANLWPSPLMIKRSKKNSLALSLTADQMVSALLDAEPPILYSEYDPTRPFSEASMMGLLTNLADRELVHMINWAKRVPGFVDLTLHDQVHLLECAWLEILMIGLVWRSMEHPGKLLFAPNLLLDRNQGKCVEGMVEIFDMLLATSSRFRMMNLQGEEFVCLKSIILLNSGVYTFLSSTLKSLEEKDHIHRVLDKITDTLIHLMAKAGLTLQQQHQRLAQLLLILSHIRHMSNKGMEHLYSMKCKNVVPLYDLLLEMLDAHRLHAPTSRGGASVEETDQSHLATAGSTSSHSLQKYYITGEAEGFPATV
Experimental: (§1) Monolayers of MCF-7 human breast cancer cells are rinsed once with HBSS and scraped off culture dishes into 15 ml conical tubes with 5 ml HBSS. The cells are sedimented by centrifugation at 250×g for five minutes, suspended in 1 ml HBSS and sedimented by centrifugation at 2000 rpm in a tabletop centrifuge for five minutes in a 1.5 ml microfuge tube. Two PCV of a solution of a lysis buffer (25 mM HEPES, pH 7.8, 50 mM KCl, 0.5% Nonidet P 40, 2 mM dithiothreitol, 0.2 mM phenylmethylsulfonyl fluoride, 0.05 mg/ml leupeptin, 0.05 mg/ml aprotinin, 0.0025 mg/ml pepstatin, 0.005 mg/ml antipain) are added and cells are kept on ice for 15 minutes. Lysed cells are centrifuged for 3 minutes at 10,000×g, supernatant decanted, and kept as the cytosol fraction. Pellets are suspended in two PCV of extraction buffer (25 mM HEPES, pH 7.8, 500 mM KCl, 10% glycerol, 2 mM dithiothreitol and the above protease inhibitors), mixed for 20 minutes by inversion at 4 degrees C. and centrifuged at 10,000×g for 20 minutes. The supernatant is decanted and saved as nuclear extract. Both the nuclear extract and the cytosol are dialyzed for two hours against dialysis buffer (25 mM HEPES, pH 7.8, 50 mM KCl, 10% glycerol, 2 mM dithiothreitol and the above protease inhibitors). Nuclear and cytosol fractions are stored frozen at -80 degrees C. until used for mobility shift assays or determination of estrogen receptor content.
Whole cell extracts of tumor cells are prepared by the method of Reese and Katzenellenbogen, Nuc. Acids Res., 19: 6595-6602 (1991), with some modifications. Cell monolayers are rinsed once with HBSS, then scraped into HBSS and sedimented by centrifugation (5 min., 250×g). After resuspending in 1 mL HBSS, the cells are again sedimented at 250×g for 5 min at 4° C. The cell pellet is resuspended in lysis/extract buffer containing 20 mM Tris, pH 7.5, 10% glycerol (v/v), 0.5M sodium chloride and 0.5% NP-40 (v/v) and incubated on ice for 25 minutes, then the supernatants are dialyzed against 25 mM HEPES, pH 7.8, 10% glycerol (v/v), 0.5 mM dithiothreitol and 50 mM potassium chloride for 2 hours at 4° C. Both the lysis/extraction and the dialysis buffers contain protease inhibitors which included 0.5 mM phenylmethylsulfonylfluoride, 0.05 mg/mL leupeptin, 0.05 mg/mL aprotinin, 0.00-25 mg/mL pepstatin, and 0.005 mg/mL antipain. Dialyzed whole cell extracts are stored in aliquots at -80° C. until used.
The protein concentration for nucleus and cytosol fractions are determined with a BIO-RAD kit, according to the manufacturer's instructions.
Estrogen receptor levels in nuclear and whole cell extracts of tumor cells were quanitated using the ER-EIA monoclonal kit manufactured by Abbott Laboratories (Diagnostic Division) according to the kit instructions.
receptors in nuclear extracts.
.dagger.WCE refers to IC50 value for estrogen receptors in whole cel
A slash dividing two numbers indicates the results of two separate

[1] = target: T2, estrogen receptor binding to an estrogen response element (Homo sapiens, UniProt P03372); experiment: Inhibition of estrogen receptor binding to an estrogen response element in DNA mobility shift assays; format: biochemical, human (nuclear extract of MCF-7 human breast cancer cells); conditions: read-out: integrated volume of shifted ERE oligo as percentage of control, given as % inhibition
T2 construct: estrogen receptor extracted from MCF-7 human breast tumor cells; endogenous in cells; host or cells: MCF-7 human breast cancer cells (nuclear extract, cytosol or whole cell extract)
T2 sequence (P03372 1-595): T1 sequence (P03372 1-595)
Experimental: as §1
Briefly, to each reaction tube was added 0.01 mg nuclear extract, 2 μg poly dIdC, 50 mM NaCl, 1 mM dithiothreitol and 10 mM Tris, pH 7.5 in a total volume of 0.01 ml and the mixture was kept at room temperature for 10 minutes. A ^32 P-labelled estrogen response element [ERE]

MCF-7 estrogen receptor = target: T3, MCF-7 estrogen receptor (Homo sapiens, UniProt P03372); experiment: Competitive binding assay, Relative Binding Affinities on binding of estradiol to MCF-7 estrogen receptor
T3 construct: estrogen receptor extracted from MCF-7 human breast tumor cells; endogenous in cells; host or cells: MCF-7 human breast cancer cells (nuclear extract, cytosol or whole cell extract)
T3 sequence (P03372 1-595): T1 sequence (P03372 1-595)
Experimental: Briefly, RBAs are determined from competitive binding assays with several concentrations of estradiol (E2) with and without test compound. After 16-18 hours of incubation at 4 degrees C., unbound [^3 H] E2 is separated from ER-bound [^3 H] E2. The IC50 is determined and the RBA is calculated as: […]

estrogen receptor mRNA = experiment: Reduction of estrogen receptor mRNA levels in treated MCF-7 human breast tumor cells; format: cell-based; conditions: 30 μM, 24 hr;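 for Estrogen Receptor mRNA band intensity: Phosphoimager intensity of radioactive mRNA bands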
Experimental: (§2) After treatment with 30 μM drug for 24 hr, total RNA is isolated according to the guanidinium isothiocyanate method using an RNA preparation kit from 5 Prime-3 Prime, Inc., following the manufacturer's instructions. The RNA is separated by formaldehyde gel electrophoresis and transferred to a nylon membrane.

GAPDH mRNA = GAPDH mRNA levels in treated MCF-7 human breast tumor cells (positive control probe); format: cell-based; conditions: 30 μM, 24 hr;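 note: Phosphoimager intensity of radioactive mRNA bands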
Experimental: as §2

[2] = estrogen receptors in nuclear extracts
[3] = WCE: estrogen receptors in whole cell extracts

## CCCCN(C)C(=O)CCCCCCNC(=O)Cc1c(C)n(CCCc2ccccc2)c2ccc(O)cc12 [MDL 104,261, 7-[[5-Hydroxy-1-(3-phenylpropyl)-2-methyl-1H-indol-3-yl]-acetylamino]-heptanoic acid methyl-butyl-amide]
Estrogen receptors; [2]
  IC50: 23.5 µM

## CCCCN(C)C(=O)CCCCCNC(=O)Cc1c(C)n(C(=O)c2ccc(Cl)cc2)c2ccc(O)cc12 [MDL 105,643, 6-[[5-Hydroxy-1-(4-chlorobenzoyl)-2-methyl-1H-indol-3-yl]-acetylamino]-hexanoic acid methyl-butyl-amide]
Estrogen receptors; [2]
  IC50: 19 µM

## CCCCN(C)C(=O)CCCCCCCNC(=O)Cc1cn(Cc2ccccc2)c2ccc(F)cc12 [MDL 104,822, 8-[[5-Fluoro-1-benzyl-1H-indol-3-yl]-acetylamino]-octanoic acid methyl-butyl-amide]
Estrogen receptors; [2]
  IC50: 12 µM

## CCCCc1ccc(C(=O)n2c(C)c(CC(=O)NCCCCCCC(=O)N(CC)CC)c3cc(O)ccc32)cc1 [MDL 103,494, 7-[[5-Hydroxy-1-(4-butylbenzoyl)-2-methyl-1H-indol-3-yl]-acetylamino]-heptanoic acid diethyl-amide]
Estrogen receptors; [3]
  IC50: 28 µM

## CCCCN(C)C(=O)CCCCCNC(=O)Cc1c(-c2ccc(O)cc2)n(Cc2ccccc2)c2ccc(O)cc12 [MDL 104,982, 6-[[5-Hydroxy-1-benzyl-2-[(4-hydroxy)phenyl]-1H-indol-3-yl]-acetylamino]-hexanoic acid methyl-butyl-amide]
Estrogen receptors; [2]
  IC50: 20 µM

## CCCCN(C)C(=O)CCCCCCCNC(=O)Cc1c(C)n(C(=O)c2ccc(OC)cc2)c2ccc(O)cc12 [MDL 105,517, 8-[[5-Hydroxy-1-(4-methoxybenzoyl)-2-methyl-1H-indol-3-yl]-acetylamino]-octanoic acid methyl-butyl-amide]
Estrogen receptors; [2]
  IC50: 16 µM

## CCCCN(C)C(=O)CCCCCCCNC(=O)Cc1c(-c2ccc(F)cc2)n(Cc2ccccc2)c2ccc(O)cc12 [MDL 103,970, 8-[[5-Hydroxy-1-benzyl-2-(4-fluorophenyl)-1H-indol-3-yl]-acetylamino]-octanoic acid methyl-butyl-amide]
Estrogen receptors; [2]
  IC50: 16 µM

## CCCCN(C)C(=O)CCCCCCCNC(=O)Cc1c(-c2ccc(OC(C)=O)cc2)n(Cc2ccccc2)c2ccc(OC(C)=O)cc12 [MDL 104,401, 8-[[5-Acetoxy-1-benzyl-2-[(4-acetoxy)-phenyl]-1H-indol-3-yl]-acetylamino]-octanoic acid methyl-butyl-amide]
Estrogen receptors; [2]
  IC50: 28 µM
[1]
  inhibition at 2 µM: 120%
  inhibition at 5 µM: 92%
  inhibition at 10 µM: 59%
  inhibition at 20 µM: 49%
  inhibition at 30 µM: 44%

## CCCCN(C)C(=O)CCCCCCNC(=O)Cc1c(-c2ccc(O)cc2)n(Cc2ccccc2)c2ccc(O)cc12 [MDL 103,623, 7-[[5-Hydroxy-1-benzyl-2-[(4-hydroxy)phenyl]-1H-indol-3-yl]-acetylamino]-heptanoic acid methyl butyl-amide]
Estrogen receptors; [2]
  IC50: 16 µM
Estrogen receptors; estrogen receptors in nuclear extracts, second of two separate experiments (after the slash)
  IC50: 17 µM

## CCN(CC)C(=O)CCCCCCCNC(=O)Cc1c(C)n(C(=O)c2ccc(Cl)cc2)c2ccc(O)cc12 [MDL 104,631, 8-[[5-Hydroxy-1-(4-chlorobenzoyl)-2-methyl-1H-indol-3-yl]-acetylamino]-octanoic acid diethyl-amide]
Estrogen receptors; [2]
  IC50: 16 µM

## CCCCN(C)C(=O)CCCCCCCNC(=O)Cc1cn(Cc2ccccc2)c2ccccc12 [MDL 103,948, 8-[[1-Benzyl-1H-indol-3-yl]-acetylamino]-octanoic acid methyl-butyl-amide]
Estrogen receptors; [3]
  IC50: 14 µM

## Cc1c(CC(=O)NCCCCCCC(=O)N(C)c2ccccc2)c2cc(O)ccc2n1C(=O)c1ccccc1 [MDL 103,005, 7-[[5-Hydroxy-1-benzoyl-2-methyl-1H-indol-3-yl]-acetylamino]-heptanoic acid methyl-phenyl-amide]
Estrogen receptors; [2]
  IC50: 27 µM

## CCCCNC(=O)CCCCCCCNC(=O)Cc1c(-c2ccc(O)cc2)n(Cc2ccccc2)c2ccc(O)cc12 [MDL 104,262, 8-[[5-Hydroxy-1-benzyl-2-[(4-hydroxy)phenyl]-1H-indol-3-yl]-acetylamino]-octanoic acid butyl-amide]
Estrogen receptors; [2]
  IC50: 25 µM

## CCCCN(C)C(=O)CCCCCCCNC(=O)Cc1c(C)n(C(=O)c2ccccc2)c2ccc(O)cc12 [MDL 105,813, 8-[[5-Hydroxy-1-benzoyl-2-methyl-1H-indol-3-yl]-acetylamino]-octanoic acid methyl-butyl-amide]
MCF-7 estrogen receptor; doses of 100 or 200 nM
  inhibition of estradiol binding to MCF-7 ER: did not significantly inhibit
MCF-7 estrogen receptor; typically, at doses of 100 or 200 nM
  inhibition of estradiol binding to MCF-7 ER: less than 10%
[1]; 2 μM
  inhibition at 2 µM: 7.6%
[1]; 5 μM
  inhibition at 5 µM: 60%
[1]; 10 μM
  inhibition at 10 µM: 84%
[1]; 20 μM
  inhibition at 20 µM: 33%
[1]; 30 μM
  inhibition at 30 µM: 30%
Estrogen receptor mRNA; mean of replicates 1 and 2
  ER/GAPDH mean: 0.63
Estrogen receptor mRNA; replicate 1
  ER/GAPDH: 0.75
  Estrogen Receptor mRNA band intensity: 5,288
Estrogen receptor mRNA; replicate 2
  ER/GAPDH: 0.5
  Estrogen Receptor mRNA band intensity: 2,418
Estrogen receptor mRNA; Homo sapiens, MCF7, read-out: ER/GAPDH % Control
  activity at 30 µM: 17%
GAPDH mRNA; replicate 1
  GAPDH mRNA band intensity: 6,996
GAPDH mRNA; replicate 2
  GAPDH mRNA band intensity: 4,830
